Data on 59 compounds can be found in the METLIN SMRT retention time set (Domingo-Almenara et al. 2019).

The nature of the data set: gradient 5% acetonitrile 3 min, to 50% in 2 min, to 85% in 15 min, held 3 min, 100 µL/min. The note with it: column: Zorbax Extend-C18 2.1 x 50 mm; eluents: water / acetonitrile, 0.1% formic acid. Summed up:
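The mobile phases were water and acetonitrile, each with 0.1% formic acid, pumped at 100 μL/min through a Zorbax Extend-C18 column (2.1 × 50 mm, 1.8 μm). Pure standards were injected as mixtures of ~100 molecules and detected by a quadrupole time-of-flight mass spectrometer in positive and negative ionization mode. Retention time came from computationally picked adduct peaks, each inspected by hand.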
Compound `COc1ccc(-c2cc3n(n2)CCCN(C(=O)C2CCCO2)C3)cc1` (centres undefined) showed an RP-LC retention time of 700 s. In the case of `CCCN(C)S(=O)(=O)c1c(C)nn(-c2ccc(-c3ccccc3)nn2)c1C` it was 1080 s. As to `CC(C)(C)NC(=O)C(=O)NCC1CCN(C(=O)COc2ccccc2)CC1`, the RP-LC retention time was 747 s. The compound `CCN(CC)S(=O)(=O)c1ccc2c(c1)N(CC(=O)NC1CCCC1)C(=O)C1CCCCN21` (centres undefined) returned an RP-LC retention time of 927 s. Regarding `COCCCNC(=O)Cn1c(=O)c(S(=O)(=O)c2ccccc2)cc2cc(C)ccc21`, the RP-LC retention time was determined as 743 s. In the case of `Cc1ccccc1OCC(=O)N1CCN(c2nc(CN3CCCCC3)cs2)CC1` it was 895 s. The figure for `CC(C)C(=O)N1CCCCCNC(=O)[C@@H]2CCCC[C@@H]21` is 700 s; for `COc1ccccc1-c1noc(Cn2c(=O)n(Cc3ccc(F)cc3)c(=O)c3sccc32)n1` it is 1020 s. The figure for `Cc1cc2nn(CC(=O)Nc3ccc(F)cc3F)c(=O)n2c(Nc2ccc(F)c(C)c2)n1` is 1060 s; for `O=C(NCCc1nc2cccnc2n1Cc1ccccc1)NCc1ccc(F)cc1` it is 738 s; for `Cc1cc2cc(CN3C(=O)c4ccccc4C3=O)ccc2[nH]1` it is 866 s.

`Cc1c(C(=O)N2CCN(C)CC2)sc2ncnc(N3CCN(c4ccccn4)CC3)c12` had an RP-LC retention time of 523 s.

Compound `CCN1CCN(CCCNC(=O)CCCn2c3ccccc3c3cnn(C)c(=O)c32)CC1` returned an RP-LC retention time of 576 s. The figure for `Cc1ccccc1CNC(=O)c1nnc(-c2ccc(S(=O)(=O)N3CCC(C)CC3)cc2)o1` is 1100 s. In the case of `COCc1nc(C2CCN(S(=O)(=O)c3ccc4c(c3)CCC4)C2)no1` (centres undefined) it was 928 s; in that of `O=C(Nc1c(C(=O)NCCc2ccccc2)[nH]c2ccc(F)cc12)c1ccccc1`, 998 s. The figure for `COc1cccc(C(=O)Nc2ccc(CC(=O)NCC(F)(F)F)cc2)c1OC` is 764 s. On to `CCN1CCN(C(=O)C2CCc3sc(C(=O)N(CC)CC)cc3C2)CC1` (centres undefined), for which the RP-LC retention time came out at 683 s. Consider `CCOc1cc(-c2ccc(C)cc2)nc2ccc(NC(=O)c3ccco3)cc12`, for which the RP-LC retention time is 764 s.

`Cc1nc(-c2ccc(-c3noc(CNC(=O)c4ccco4)n3)cc2)cs1` displayed an RP-LC retention time of 837 s. In the case of `CCn1c(C(=O)NCCCN2CCCC(C)C2)c(N2CCCC2=O)c2cc(F)ccc21` (centres undefined), the RP-LC retention time came out at 660 s. In the case of `CCCN1C(=O)COc2ccc(-c3noc(-c4cccc(F)c4)n3)cc21` it was 1200 s; in that of `Cc1ccc(-c2cn3c(CC(=O)Nc4ccc(F)cc4Cl)csc3n2)cc1C`, 911 s. The figure for `O=S(=O)(c1ccccc1Cl)N1CCC(c2noc(COCc3ccccc3)n2)CC1` is 1100 s. The figure for `Cc1ccc(CN2CCCC(c3nc(C(C)C)no3)CCNC(=O)CC2)o1` (centres undefined) is 636 s; for `CCn1c(=O)sc2cc(S(=O)(=O)N3CCC(C(=O)N(C)c4ccc(C)cc4)CC3)ccc21` it is 953 s; for `CCS(=O)(=O)c1cccc(C(=O)Nc2nnc(-c3ccsc3)o2)c1` it is 662 s. As for `COC(=O)c1cc(OCC(=O)Nc2ccc(F)cc2)c2cc(F)ccc2n1`, the RP-LC retention time worked out at 836 s. In the case of `O=C(NCc1ccc(F)cc1)N1CCN(c2nc3cccnc3n(Cc3ccccc3)c2=O)CC1` it was 1020 s; in that of `COC(=O)c1c(C)[nH]c(C(=O)N2CCC(CC(=O)N3CCCCCC3)CC2)c1C`, 715 s; in that of `COc1cccc(Oc2nccn3c(=O)n(CC(=O)Nc4ccccc4C(F)(F)F)nc23)c1`, 850 s. The figure for `O=C(C1CCN(c2cnc3nccnc3c2)CC1)N1CCN(c2ccccn2)CC1` is 570 s; for `COc1cccc(-c2cc3n(n2)CCCN(C(=O)c2ccsc2)C3)c1` it is 714 s; for `N#Cc1ccc(C(=O)Nc2cnc(-c3cccc(Cl)c3)nc2)cc1` it is 1050 s. In the case of `CCc1noc(NC(C)=O)c1-c1ccc(C)c(S(=O)(=O)NC2CCCCCCC2)c1` it was 959 s; in that of `COc1cccc(-c2nnc(Cc3nc(-c4cccc(Cl)c4)no3)o2)c1`, 1090 s; in that of `Cc1cc(NC(=O)c2cn(-c3ccc(C#N)cc3)cn2)ccc1Br`, 1020 s. In turn, `COc1ccc(C2C(C(=O)c3cccs3)=C(O)C(=O)N2CCCN2CCOCC2)cc1OC` (centres undefined) had an RP-LC retention time of 613 s. `COc1ccccc1-c1noc(Cn2c(=O)n(-c3cccc(F)c3)c(=O)c3sccc32)n1`: the RP-LC retention time is 880 s. The figure for `Clc1cccc(CSc2nnc(-c3ccc(Br)cc3)o2)c1` is 1260 s; for `Cc1cccc(-c2nc3nc(C)cc(Nc4cccc5nsnc45)n3n2)c1` it is 984 s; for `CCNc1cc(N2CCC(CCC(=O)Nc3ccc4c(c3)OCCO4)CC2)ncn1` it is 572 s. In the case of `Cc1ccccc1Cc1nc(-c2ccc3c(c2)nnn3CCN2CCOCC2)no1` it was 692 s; in that of `Cn1cc2c(N3CCCC3)nc(C(=O)NCCN3CCc4ccccc4C3)nc2n1`, 523 s; in that of `O=C(Cc1cccs1)N1CCCn2nc(-c3ccncc3)cc2C1`, 591 s. The figure for `COCCCNC(=O)Cn1c(=O)n(-c2ccc(F)cc2)c2ncccc21` is 1390 s; for `Cc1cccc(CNC(=O)C2=C3CCCN3c3ccc(F)cc3S2(=O)=O)c1` it is 936 s; for `Cn1c(=O)c2nc(S(=O)(=O)CCC(=O)Nc3ccc(Cl)cc3)n(C)c2n(C)c1=O` it is 741 s.

As to `O=C(C1COc2ccccc2O1)N1CCN(Cc2nc3ccccc3[nH]2)CC1` (centres undefined), the RP-LC retention time came to 578 s.

`O=C(C1CCN(c2ncnc3c2oc2ccccc23)CC1)N1CCN(c2ccccc2F)CC1` returned an RP-LC retention time of 832 s. The figure for `Cc1ccc(-c2ncc(NC(=O)C(C)(C)C)cn2)cc1` is 968 s; for `COc1ccc(N2CC(c3noc(-c4ccc(OC)c(F)c4)n3)CC2=O)cc1` (centres undefined) it is 856 s. In the case of `CCCc1cc(N2CCN(C(=O)Cc3ccsc3)CC2)nc2nnc(CC)n12` it was 649 s; in that of `CC(C)C(=O)NC(Cc1ccccc1)c1nnc(N2CCSCC2)o1` (centres undefined), 738 s. In the case of `O=C(Nc1ccccc1)c1cnn2c1CCCC2` it was 699 s; in that of `Cc1ccc2[nH]cc(CCNC(=O)c3ccc4nc(C(C)C)oc4c3)c2c1`, 925 s. Turning to `CCc1cc(=O)n(CC(=O)Nc2ccccc2)c(-c2ccccc2)n1`, the RP-LC retention time came to 1090 s. In the case of `Brc1cncc(-c2nc(-c3cccc(-c4ccn[nH]4)c3)no2)c1` it was 954 s; in that of `CN(C)C(=O)C1CCN(S(=O)(=O)Cc2ccc(F)cc2)CC1`, 691 s.
